In data set [1] the target is HNF4α. Set-up: method as in PMID 33114319. As to conditions: ITC; cited from earlier work. A general note: ITC needs no label: the signal is the heat of the interaction.
For data set [2], the system named is HNF4α. Set-up: method as in PMID 33114319. The following applies: reporter gene assay; cited from earlier work. Background: A reporter such as luciferase makes a cellular process visible.
Data set [3] deals with fructose-1,6-bisphosphatase 1 (FBP1). Set-up: method as in PMID 33114319. As to conditions: HepG2 cells; cited from earlier work.
In data set [4] the target is MBP-PNR-LBD. Details: method as in PMID 35508617. As to conditions: determined by UV absorption; cited from earlier work.
Data set [5] relates to nuclear receptors. Put plainly: Selectivity profiling in Gal4-hybrid reporter gene assay panel. The following applies: at active concentration. It is filed as cell-based, human.
Method: Compounds were tested at concentrations around EC90 according to the literature or at the highest nontoxic concentration (from the multiplex toxicity assay). […] (b) Selectivity profiling of NR2 modulators in a representative panel of nuclear receptors outside the NR2 family. […] Effects <5% of the respective reference ligands were considered as not relevant and omitted. Only effects are shown that are statistically significant against VP16 ctrl (Figure S3); n = 3.
HEK293T cells (German Collection of Microorganisms and Cell Culture GmbH, DSMZ) were cultured in Dulbecco’s modified Eagle’s medium (DMEM), high glucose supplemented with 10% fetal calf serum (FCS), sodium pyruvate (1 mM), penicillin (100 U/mL), and streptomycin (100 μg/mL) at 37 °C and 5% CO2 and seeded in 96-well plates (3 × 10^4 cells/well). The medium was changed to Opti-MEM without supplements, and the cells were transiently transfected with one pFA-CMV-hNR-LBD clone, pFR-Luc, and pRL-SV40 using Lipofectamine LTX reagent (Invitrogen, Thermo Fisher Scientific) according to the manufacturer’s instructions. Five hours after transfection, cells were incubated with the test compounds in Opti-MEM supplemented with penicillin (100 U/mL), streptomycin (100 μg/mL), and 0.1% DMSO. Each sample was set up in duplicates and tested in at least three independent experiments. After 16 h incubation, luciferase activity was measured using the Dual-Glo Luciferase Assay System (Promega) according to the manufacturer’s protocol on a Tecan Spark luminometer (Tecan Deutschland GmbH, Crailsheim, Germany). Firefly luminescence was divided by Renilla luminescence and multiplied by 1000 resulting in relative light units (RLUs) to normalize for transfection efficiency and cell growth. Fold activation was obtained by dividing the mean RLU of the test compound by the mean^a RLU of the untreated control, and relative activation was calculated by dividing the fold activation of a test sample by the fold activation of the respective reference agonist. Antagonistic effects were evaluated by coincubation of the test compound with the respective reference ligand.
For data set [6], the system named is COS-7 cells. Put plainly: Multiplex toxicity assay. It is filed as cell-based. As to conditions: 24 h, at active concentration. The procedure:
COS-7 cells (DSMZ #ACC 60) were cultured at 37°C and 5% CO2 in DMEM high glucose medium supplemented with sodium pyruvate (1 mM), penicillin (100 U/mL), streptomycin (100 µg/mL), and 10% fetal calf serum (FCS). After aspirating the wells, the cells were seeded at 1x10^5 cells per well in complete culture medium. […] Each sample was prepared in at least 4 biologically independent replicates. After incubation for 24 h, the wells were aspirated and incubated for 30 min with stimulation medium containing 1 µM NucView® 405 fluorogenic caspase-3 substrate (#10405, Biotium, Fremont, USA) and Live-or-Dye Nuc-Fix Red (0.05x, Biotium, Inc., Fremont, CA, 1691 USA) to detect apoptosis and necrosis, respectively. After incubation, a total of 6 fluorescence images per well at 10x magnification were taken to detect NucView®-positive (Ex: 381–400 nm, Em: 414–450 nm) and Live-or-Dye-positive cells (Ex: 543−566 nm, Em: 580−611 nm) using on a Tecan Spark Cyto (Tecan Group AG). Reference readings for background correction and detection of auto-fluorescence were taken at 414–450 nm prior to staining. Thereafter, wells were aspirated, the cells were incubated for 3 h with 90 µL culture medium (0.2% FCS) and 10 µL Cell Counting Kit-8 solution (CCK-8, MedChem Express #HY-K0301), and absorbance was measured at 1, 2, and 3h of incubation at 450 nm on a Tecan Spark Cyto to assess metabolic activity of the cells. Before drug administration, after the first medium exchange, 24 h after drug administration, and after fluorescence imaging cell confluence was assessed using the Tecan Spark Cyto, to account for changes in cell confluence due to drug administration and cell handling. The number of apoptotic cells, metabolic activity, and changes in cell confluence in response to drug treatment were all normalized to the vehicle control of each biological replicate individually.

The test system of data set [7] is MBP-NR2E1-LBD. Details: method as in PMID 35508617. The following applies: MS-based binding experiment; cited from earlier work.
The subject of data set [8] is PNR protein levels. Set-up: method as in PMID 35508617, PMID 19379737. The following applies: retinoblastoma cells, 1 µM, Western blot; cited from earlier work. Background: Immunoblotting shows a protein as a band on a membrane.
Data set [9] deals with ATF6. Kind of data set: ATF6 activity assay. The following applies: tunicamycin treated Hela ATF6 reporter cells. It is filed as cell-based. The source says:
Next, we evaluated the potential impact of the NR2 modulator set on endoplasmic reticulum (ER) stress in an ATF6 activity assay (Fig. 4b). The activating transcription factor 6 (ATF6) participates in the unfolded protein response and is activated under ER stress.[164] Tunicamycin-induced ATF6 activity was not affected by RXR and TLX modulators but was reduced by the inverse PNR agonists 22 and 23.
Hela cells containing a Renilla luciferase reporter gene for ATF6 activity (ATF6 Leeporter™ Luciferase Reporter-HeLa Cell Line, Abeomics Inc.; #14-138ACL) were cultured in DMEM supplemented with 10% heat-inactivated FCS, penicillin (100 U/mL), streptomycin (100 μg/mL) and puromycin (3 µg/mL) at 37°C and 5% (v/v) CO2 and seeded in 96-well plates (1 × 10^5 per well). After 24 h, the cells were incubated with the test compounds solubilized with 0.1% DMSO in the same medium without puromycin. After 4 h of incubation, tunicamycin (100 ng/mL) was added. After another 18 h of incubation, cells were assayed for renilla luminescence using DualGlo reagent (Promega) on a Tecan SPARK Cyto (Tecan). Test samples were normalized to the 0.1% DMSO control.

Data set [10] has as its target PNR mutations associated with Enhanced S-Cone Syndrome (ESCS). Details: method as in PMID 35508617. As to conditions: cited from earlier work.
Data set [11] has as its system PNR. Set-up: method as in PMID 35508617. The following applies: cited from earlier work.

The source of these data is PMC7617459, “Comparative Evaluation and Profiling of Chemical Tools for the Nuclear Hormone Receptor Family 2” (ACS pharmacology & translational science, 2025).

Consider `OC(c1ccc(F)cc1)c1ccc(F)cc1` [compound 5], for which the Kd (as a rule, the constant that tells how readily two partners part at equilibrium) in data set [1] is 1.7 µM. Moreover, the IC50 (as a rule, the concentration that gives 50% inhibition) in [2] is 24 µM. In addition, the “expression of HNF4 target gene FBP1” value in data set [3] is given as “diminished expression”.

On to `C=CC1=C(C)/C(=C/C2=NC(=C\c3[nH]c(/C=C4\NC(=O)C(C)=C4C=C)c(C)c3CCC(=O)O)/C(CCC(=O)O)=C2C)NC1=O` [compound 25, biliverdin], for which the results for the Kd in data set [4] and in data set [10] were 0.2 µM and 9 µM, respectively. Further, the “selectivity over other nuclear receptors” value in data set [5] is on record as “Favorable selectivity profiles”. For the same molecule, in data set [6], the cytotoxicity entry is on record as “lack of cytotoxicity”. The “interaction with MBP-NR2E1-LBD (TLX)” value in data set [7] is “no interaction”. Moreover, in data set [8], the PNR protein levels result is listed as “two-fold increase”. Moreover, the “tunicamycin-induced ATF6 activity” value in data set [9] is “slightly diminished”. Moreover, the PNR activation entry in [11] (reporter gene assay in 293F cells) is listed as “approximately 3 fold”. Besides, in data set [11] (reporter gene assay), the EC50 (commonly the concentration that produces a half-maximal response) is 0.005 µM.
